From PubChem BioAssay AID330 (DTP/NCI, 2004)
Where “and” joins values, the source holds several entries; their conditions need not be identical. Identical values can stand only once. Inconclusive results and toxic doses are left out.

Tested on: P388 leukemia ip, CD2F1 mice, survival T/C
Test: NCI In Vivo Anticancer Drug Screen. Data for tumor model P388 Leukemia (intraperitoneal) in CD2F1 (CDF1) mice
Conditions: endpoint: median survival time, higher = longer survival
Outline: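 Mice carrying the transplanted tumor received test compound or vehicle. Survival was recorded in each group, and the value is the treated-group measurement divided by that of the vehicle-treated control group.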

[1] = dose: 50.0 mg/kg/injection, schedule: Q01DX005 (ip), vehicle: saline with Tween-80
[2] = dose: 100.0 mg/kg/injection, schedule: Q01DX005 (ip), vehicle: saline with Tween-80
[3] = dose: 200.0 mg/kg/injection, schedule: Q01DX005 (ip), vehicle: saline with Tween-80
[4] = dose: 50.0 mg/kg/injection, schedule: Q01DX009 (ip), vehicle: saline
[5] = dose: 100.0 mg/kg/injection, schedule: Q01DX009 (ip), vehicle: saline

CNC(=O)OCc1c(Cl)nc2n1CCS2
T/C (dose: 25.0 mg/kg/injection, schedule: Q01DX001 (ip), vehicle: Klucel (hydroxypropylcellulose) (HPC)): 109 % of control
T/C (dose: 50.0 mg/kg/injection, schedule: Q01DX001 (ip), vehicle: Klucel (hydroxypropylcellulose) (HPC)): 109 % of control
T/C (dose: 100.0 mg/kg/injection, schedule: Q01DX001 (ip), vehicle: Klucel (hydroxypropylcellulose) (HPC)): 106 % of control

CCCCCCCCSc1nc2ccc(N=Cc3ccccc3O)cc2s1
T/C (dose: 12.5 mg/kg/injection, schedule: Q01DX009 (ip), vehicle: Klucel (hydroxypropylcellulose) (HPC)): 109 % of control
T/C (dose: 25.0 mg/kg/injection, schedule: Q01DX009 (ip), vehicle: Klucel (hydroxypropylcellulose) (HPC)): 94 % of control
T/C (dose: 50.0 mg/kg/injection, schedule: Q01DX009 (ip), vehicle: Klucel (hydroxypropylcellulose) (HPC)): 90 % of control and 92 % of control
T/C (dose: 200.0 mg/kg/injection, schedule: Q01DX009 (ip), vehicle: Klucel (hydroxypropylcellulose) (HPC)): 91 % of control

COC(=O)c1c(C(=O)c2ccccc2)nnn1-c1cccc(C(F)(F)F)c1
T/C (dose: 60.0 mg/kg/injection, schedule: Q01DX005 (ip), vehicle: Klucel + Tween-80): 102 % of control
T/C (dose: 120.0 mg/kg/injection, schedule: Q01DX005 (ip), vehicle: Klucel + Tween-80): 103 % of control
T/C (dose: 240.0 mg/kg/injection, schedule: Q01DX005 (ip), vehicle: Klucel + Tween-80): 107 % of control

C=C1CC23CCC4C(C)(C(=O)O)CCCC4(C)C2CCC1C3 (stereo unspecified)
T/C [1]: 116 % of control
T/C [2]: 116 % of control
T/C [3]: 117 % of control
T/C (dose: 400.0 mg/kg/injection, schedule: Q01DX005 (ip), vehicle: saline with Tween-80): 107 % of control

COc1cc(C)c(/C(=N/O)n2nnc(-c3ccc(Cl)cc3)n2)c(C)c1
T/C (dose: 100.0 mg/kg/injection, schedule: Q01DX001 (ip), vehicle: saline with Tween-80): 123 % of control
T/C (dose: 200.0 mg/kg/injection, schedule: Q01DX001 (ip), vehicle: saline with Tween-80): 114 % of control
T/C (dose: 400.0 mg/kg/injection, schedule: Q01DX001 (ip), vehicle: saline with Tween-80): 95 % of control

CCCN(CCC)CC(=O)Nc1c(Cl)cccc1Cl
T/C (dose: 25.0 mg/kg/injection, schedule: Q01DX009 (ip), vehicle: saline): 100 % of control
T/C [4]: 110 % of control
T/C [5]: 105 % of control

CC1=C2CC(C)(C)/C=C\C(=O)/C(C)=C\C3=CCCC3(O2)C1=O (stereo unspecified)
T/C (dose: 5.0 mg/kg/injection, schedule: Q01DX005 (ip), vehicle: Klucel (hydroxypropylcellulose) (HPC)): 110 % of control
T/C (dose: 10.0 mg/kg/injection, schedule: Q01DX005 (ip), vehicle: Klucel (hydroxypropylcellulose) (HPC)): 120 % of control
T/C (dose: 20.0 mg/kg/injection, schedule: Q01DX005 (ip), vehicle: Klucel (hydroxypropylcellulose) (HPC)): 107 % of control

COC(=O)c1cc(O)c2c(c1C(=O)OC)C[C@H]1[C@@H]3CC=C4C[C@@H](O)CC[C@]4(C)[C@H]3CC[C@]21C
T/C [1]: 97 % of control
T/C [2]: 87 % of control
T/C [3]: 87 % of control

C=C1C(=O)OC2/C=C(/COC(=O)CCCCC)CCC(OCC)C3=CC(OC3=O)C12 (stereo unspecified)
T/C (dose: 4.0 mg/kg/injection, schedule: Q01DX009 (ip), vehicle: Klucel (hydroxypropylcellulose) (HPC)): 105 % of control
T/C (dose: 8.0 mg/kg/injection, schedule: Q01DX009 (ip), vehicle: Klucel (hydroxypropylcellulose) (HPC)): 105 % of control
T/C (dose: 16.0 mg/kg/injection, schedule: Q01DX009 (ip), vehicle: Klucel (hydroxypropylcellulose) (HPC)): 108 % of control
T/C (dose: 32.0 mg/kg/injection, schedule: Q01DX009 (ip), vehicle: Klucel (hydroxypropylcellulose) (HPC)): 123 % of control

CCN(CC)C1CS(=O)(=O)OC(c2ccccc2)=C1C (stereo unspecified)
T/C [1]: 100 % of control
T/C [2]: 102 % of control
T/C [3]: 100 % of control

Clc1ccc(SCc2csc(-c3ccc(Cl)cc3)n2)cc1
T/C [4]: 104 % of control
T/C [5]: 111 % of control
T/C (dose: 200.0 mg/kg/injection, schedule: Q01DX009 (ip), vehicle: saline): 104 % of control

Nc1nnc2nc(CC(=O)c3cccc([N+](=O)[O-])c3)/c(=C/C(=O)c3cccc([N+](=O)[O-])c3)n12
T/C [1]: 94 % of control
T/C [2]: 91 % of control
T/C [3]: 101 % of control

COc1ccc2c(c1)CCn1c(C)c(COC(=O)NC(C)C)c(COC(=O)NC(C)C)c1-2
T/C (dose: 12.5 mg/kg/injection, schedule: Q01DX009 (ip), vehicle: distilled water + Tween-80): 153 % of control and 160 % of control
T/C (dose: 25.0 mg/kg/injection, schedule: Q01DX009 (ip), vehicle: distilled water + Tween-80): 153 % of control and 164 % of control
